Assay results taken from patent US11629171B2, “Beta-hairpin peptidomimetics” (POLYPHOR AG, priority 2017, dated 2023).
Values after ≈ are worked out from the molar mass of the structure shown. Where a SMILES comes first, the peptide text is derived from it. Bridges are numbered along the chain shown (N, C = ends). Roman numbers before positions name the chains, in order. [ ]: non-standard residue; d: D form. dDab = NCC[C@@H](N)C(=O)O; Dab = NCC[C@H](N)C(=O)O; Abu = CC[C@H](N)C(=O)O; Dap = NC[C@H](N)C(=O)O

Assays:
[1] = system: Acinetobacter baumannii 872842; assay type: cell-based; details: 872842
How it was run: (§1)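 Cation-adjusted MH-II broth, 0.002% polysorbate 80, inoculum near 10^6 CFU/mL. MIC read visually after 18-20 h, 35° C; units μg/mL.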

[2] = system: Acinetobacter baumannii DSM 30008; assay type: cell-based; details: DSM 30008
How it was run: as §1

[3] = system: Enterobacter cloacae 848840; assay type: cell-based; details: 848840
How it was run: as §1

Escherichia coli 926415 = assay type: cell-based; details: 926415
How it was run: as §1

[4] = system: Escherichia coli ATCC 25922; assay type: cell-based; details: ATCC 25922
How it was run: as §1

[5] = system: Klebsiella pneumoniae 968733; assay type: cell-based; details: 968733
How it was run: as §1

[6] = system: Klebsiella pneumoniae SSI #3010; assay type: cell-based; details: SSI #3010
How it was run: as §1

[7] = system: Pseudomonas aeruginosa ATCC 27853; assay type: cell-based; details: ATCC 27853
How it was run: as §1

[8] = system: human red blood cells (hRBC); test: Hemolysis; assay type: cell-based; details: red cells of human, 1 h, 200
How it was run: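 Washed fresh hRBC (20% v/v) were incubated with peptides at 200 μg/mL for 1 h at 37° C with shaking at 300 rpm. Supernatant OD540 was read after centrifugation and dilution, blank-corrected, and expressed as percent of the 2% Triton X-100 (100% lysis) control; PBS with 10% water gave 0%.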

male ICR mice = test: Tolerability in a mouse model (Maximum Tolerated Dose assay); assay type: in vivo; details: 2 × 40 mg/kg s.c. at a 12-hr interval, groups of 3
How it was run: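 Peptides in 0.9% NaCl (pH 6.5-7.6) given s.c. at 30 or 40 mg/kg, twice 12 h apart, to groups of 3 male ICR mice (23±3 g). Acute toxic signs (mortality, convulsions, tremors, sedation) and autonomic effects (diarrhea, salivation, piloerection) observed for 30 min after each dose.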

| SMILES | MIC [1] [µg/mL] | Acinetobacter baumannii DSM 30008 MIC [2] [µg/mL] | MIC [3] [µg/mL] | MIC (Escherichia coli 926415) [µg/mL] | Escherichia coli ATCC 25922 MIC [4] [µg/mL] | MIC [5] [µg/mL] | Klebsiella pneumoniae SSI #3010 MIC [6] [µg/mL] | Pseudomonas aeruginosa ATCC 27853 MIC [7] [µg/mL] | Hemolysis at 200 μg/mL [8] [%] | Mortality and dose (male ICR mice) |
| --- | --- | --- | --- | --- | --- | --- | --- | --- | --- | --- |
| CC[C@@H]1NC(=O)[C@H](CCN)NC(=O)[C@H](Cc2ccc(O)cc2)NC(=O)[C@@H](NC(=O)[C@@H](NC(C)=O)C(C)C)CSSC[C@@H](C(=O)N[C@@H](CO)C(N)=O)NC(=O)[C@H](C(C)C)NC(=O)[C@H](CO)NC(=O)[C@H](Cc2c[nH]c3ccccc23)NC(=O)[C@H](CCC(=O)N[C@@H](CCN)C(=O)N[C@H](C(=O)N[C@@H](CN)C(=O)N[C@H]2CCNC(=O)[C@H]([C@@H](C)O)NC(=O)[C@H](CCN)NC(=O)[C@H](CCN)NC(=O)[C@H](CC(C)C)NC(=O)[C@@H](CC(C)C)NC(=O)[C@H](CCN)NC2=O)[C@@H](C)O)NC(=O)[C@@H](CCN)NC1=O [Ex. 363] (I: Ac-VCY[Dab][Abu][dDab]EWSVCS-NH2 / II: [Dab]T[Dap][Dab][Dab][dL]L[Dab][Dab]T; disulfide I:2-I:11; amide I:7-II:N; lactam II:4-II:C) | 0.0625 (≈ 0.0261 µM) | 0.0625 | 0.0625 (≈ 0.0261 µM) | 0.125 (≈ 0.0522 µM) | 0.0625 | 0.125 (≈ 0.0522 µM) | 0.0625 | 0.125 | 2 | 0/3 died at 2 × 40 mg/kg |
| CC(=O)N[C@H](C(=O)N[C@H]1CSSC[C@@H](C(=O)N[C@@H](CO)C(N)=O)NC(=O)[C@H](C(C)C)NC(=O)[C@H](CO)NC(=O)[C@H](Cc2c[nH]c3ccccc23)NC(=O)[C@H](CCC(=O)N[C@@H](CCN)C(=O)N[C@H](C(=O)N[C@@H](CN)C(=O)N[C@H]2CCNC(=O)[C@H]([C@@H](C)O)NC(=O)[C@H](CCN)NC(=O)[C@H](CCN)NC(=O)[C@H](CC(C)C)NC(=O)[C@@H](CC(C)C)NC(=O)[C@H](CCN)NC2=O)[C@@H](C)O)NC(=O)[C@@H](CCN)NC(=O)[C@H]([C@@H](C)O)NC(=O)[C@H](CCN)NC(=O)[C@H](Cc2ccc(O)cc2)NC1=O)C(C)C [Ex. 364] (I: Ac-VCY[Dab]T[dDab]EWSVCS-NH2 / II: [Dab]T[Dap][Dab][Dab][dL]L[Dab][Dab]T; disulfide I:2-I:11; amide I:7-II:N; lactam II:4-II:C) | 0.125 (≈ 0.0518 µM) | 0.0625 | 0.125 (≈ 0.0518 µM) | 0.25 (≈ 0.104 µM) | 0.0625 | 0.125 (≈ 0.0518 µM) | 0.0625 | 0.125 | <1 | 0/3 died at 2 × 40 mg/kg |
| CC(=O)N[C@H](C(=O)N[C@H]1CSSC[C@@H](C(=O)N[C@@H](CO)C(N)=O)NC(=O)[C@H](C(C)C)NC(=O)[C@H](CO)NC(=O)[C@H](Cc2c[nH]c3ccccc23)NC(=O)[C@H](CCC(=O)N[C@@H](CCN)C(=O)N[C@H](C(=O)N[C@@H](CN)C(=O)N[C@H]2CCNC(=O)[C@H]([C@@H](C)O)NC(=O)[C@H](CCN)NC(=O)[C@H](CCN)NC(=O)[C@H](CC(C)C)NC(=O)[C@@H](CC(C)C)NC(=O)[C@H](CCN)NC2=O)[C@@H](C)O)NC(=O)[C@@H](CCN)NC(=O)[C@H](Cc2c[nH]cn2)NC(=O)[C@H](CCN)NC(=O)[C@H](Cc2ccc(O)cc2)NC1=O)C(C)C [Ex. 365] (I: Ac-VCY[Dab]H[dDab]EWSVCS-NH2 / II: [Dab]T[Dap][Dab][Dab][dL]L[Dab][Dab]T; disulfide I:2-I:11; amide I:7-II:N; lactam II:4-II:C) | 0.0625 (≈ 0.0255 µM) | 0.0625 | 0.0625 (≈ 0.0255 µM) | 0.125 (≈ 0.051 µM) | 0.03125 | 0.125 (≈ 0.051 µM) | 0.0625 | 0.125 | <1 | 0/3 died at 2 × 40 mg/kg |
| CC(=O)N[C@H](C(=O)N[C@H]1CSSC[C@@H](C(=O)N[C@H](C)C(=O)N[C@@H](CO)C(N)=O)NC(=O)[C@H](C(C)C)NC(=O)[C@H](CO)NC(=O)[C@H](Cc2c[nH]c3ccccc23)NC(=O)[C@H](CO)NC(=O)[C@@H](CCN)NC(=O)[C@H](CCC(=O)N[C@@H](CCN)C(=O)N[C@H](C(=O)N[C@@H](CN)C(=O)N[C@H]2CCNC(=O)[C@H]([C@@H](C)O)NC(=O)[C@H](CCN)NC(=O)[C@H](CCN)NC(=O)[C@H](CC(C)C)NC(=O)[C@@H](CC(C)C)NC(=O)[C@H](CCN)NC2=O)[C@@H](C)O)NC(=O)[C@H](CCN)NC(=O)[C@H](Cc2ccc(O)cc2)NC1=O)C(C)C [Ex. 370] (I: Ac-VCY[Dab]E[dDab]SWSVC[dA]S-NH2 / II: [Dab]T[Dap][Dab][Dab][dL]L[Dab][Dab]T; disulfide I:2-I:11; amide I:5-II:N; lactam II:4-II:C) | 0.5 (≈ 0.202 µM) | 0.0625 | 0.125 (≈ 0.0506 µM) | 0.5 (≈ 0.202 µM) | 0.0625 | 1 (≈ 0.405 µM) | 0.0625 | 0.125 | 2 | 0/3 died at 2 × 40 mg/kg |
| CC(=O)N[C@H](C(=O)N[C@H]1CSSC[C@@H](C(=O)N[C@@H](CO)C(=O)N[C@H](CO)C(N)=O)NC(=O)[C@H](C(C)C)NC(=O)[C@H](CO)NC(=O)[C@H](Cc2c[nH]c3ccccc23)NC(=O)[C@H](CO)NC(=O)[C@@H](CCN)NC(=O)[C@H](CCC(=O)N[C@@H](CCN)C(=O)N[C@H](C(=O)N[C@@H](CN)C(=O)N[C@H]2CCNC(=O)[C@H]([C@@H](C)O)NC(=O)[C@H](CCN)NC(=O)[C@H](CCN)NC(=O)[C@H](CC(C)C)NC(=O)[C@@H](CC(C)C)NC(=O)[C@H](CCN)NC2=O)[C@@H](C)O)NC(=O)[C@H](CCN)NC(=O)[C@H](Cc2ccc(O)cc2)NC1=O)C(C)C [Ex. 375] (I: Ac-VCY[Dab]E[dDab]SWSVCS[dS]-NH2 / II: [Dab]T[Dap][Dab][Dab][dL]L[Dab][Dab]T; disulfide I:2-I:11; amide I:5-II:N; lactam II:4-II:C) | 0.0625 (≈ 0.0251 µM) | 0.03125 | 0.25 (≈ 0.101 µM) | 0.125 (≈ 0.0503 µM) | 0.03125 | 0.125 (≈ 0.0503 µM) | 0.0625 | 0.125 | <1 | 0/3 died at 2 × 40 mg/kg |
